Results taken from patent US10407467B2, “Polymyxin derivatives and their use in combination therapy together with different antibiotics” (priority 2013, dated 2019).
Where a name gives a salt, the structure may show the parent alone. Numbered stars: 1 amine (or outer) side, 2 acyl side, 3 side chain; on linkers, the order of the positions; unused ones are H or OH. Bridge positions count the residues as written; N and C are the ends. Square brackets hold non-standard residues; d marks the D form. Peptide text beside a SMILES is read from it. * marks the point of attachment. ξ: configuration not given here. Acetyl(cis-4-NH-cyclohexyl) = O=C(C[C@H]1CC[C@@H](N[*:1])CC1)[*:2]; ξHexahydromandeloyl = O=C(C(O)C1CCCCC1)*; ξβ3hGly(cHex) = NC(CC(=O)*)C1CCCCC1; X8 = N[C@@H]1CC[C@H](C(=O)*)C1; Thr(3ξ) = CC(O)[C@H](N)C(=O)O; X11 = O=C(C(O)c1cccc(Br)c1)*; X5 = O=C(C[C@@H]1CCCCN1)*; Dab = NCC[C@H](N)C(=O)O; X4 = NC1CCCC1C(=O)*

Assays:
Assay in all cases: MIC, compound in combination with a second agent (broth microdilution)
Format in all cases: cell-based
Acinetobacter baumannii = settings: 1:1 (wt:wt) combination with Rifampicin
How it was run: (§1)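 MIC values express combined concentration of test compound plus partner agent such as rifampicin, mixed at equal mass (1:1 w/w, salt-form weight). Direct colony suspensions at 0.5 McFarland, up to four strains per species, tested in duplicate; >2-fold disagreement invalid, otherwise lower value or mode of repeats reported.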

Escherichia coli = settings: 1:1 (wt:wt) combination with Rifampicin
How it was run: as §1

Klebsiella pneumoniae = settings: 1:1 (wt:wt) combination with Rifampicin; for MIC K. pneumoniae ATCC 4352: strain ATCC 4352
How it was run: as §1

Pseudomonas aeruginosa = settings: 1:1 (wt:wt) combination with Rifampicin
How it was run: as §1

[1] = MIC = total drug concentration, strain CCUG57249
[2] = MIC = total drug concentration, strain NCTC 13423
[3] = MIC = total drug concentration, strain NCTC 13424
[4] = MIC = total drug concentration, strain ATCC25922
[5] = MIC = total drug concentration, strain NCTC9001
[6] = MIC = total drug concentration, strain ATCC-BAA-2146
[7] = MIC = total drug concentration, strain CCUG-59348
[8] = MIC = total drug concentration, strain NCTC 13438
[9] = MIC = total drug concentration, strain ATCC 27853
[10] = MIC = total drug concentration, strain ATCC CRM-9027
[11] = MIC = total drug concentration, strain ATCC-47
[12] = MIC = total drug concentration, strain CCUG 59626
[13] = MIC = total drug concentration, strain ATCC BAA-747
[14] = MIC is total drug concentration

| SMILES | MIC A. baumannii CCUG57249 (Acinetobacter baumannii; [1]) [micrograms/mL] | MIC A. baumannii NCTC 13423 (Acinetobacter baumannii; [2]) [micrograms/mL] | MIC A. baumannii NCTC 13424 (Acinetobacter baumannii; [3]) [micrograms/mL] | MIC E. coli ATCC25922 (Escherichia coli; [4]) [micrograms/mL] | MIC E. coli NCTC9001 (Escherichia coli; [5]) [micrograms/mL] | MIC K. pneumoniae ATCC 4352 (Klebsiella pneumoniae; MIC = total drug concentration) [micrograms/mL] | MIC K. pneumoniae ATCC-BAA-2146 (Klebsiella pneumoniae; [6]) [micrograms/mL] | MIC K. pneumoniae CCUG-59348 (Klebsiella pneumoniae; [7]) [micrograms/mL] | MIC K. pneumoniae NCTC 13438 (Klebsiella pneumoniae; [8]) [micrograms/mL] | MIC P. aeruginosa ATCC 27853 (Pseudomonas aeruginosa; [9]) [micrograms/mL] | MIC P. aeruginosa ATCC CRM-9027 (Pseudomonas aeruginosa; [10]) [micrograms/mL] | MIC P. aeruginosa ATCC-47 (Pseudomonas aeruginosa; [11]) [micrograms/mL] | MIC P. aeruginosa CCUG 59626 (Pseudomonas aeruginosa; [12]) [micrograms/mL] | MIC A. baumannii ATCC BAA-747 (Acinetobacter baumannii; [13]) [micrograms/mL] | other results |
| --- | --- | --- | --- | --- | --- | --- | --- | --- | --- | --- | --- | --- | --- | --- | --- |
| CC(C)C[C@@H]1NC(=O)[C@@H](Cc2ccccc2)NC(=O)[C@H](CCN)NC(=O)[C@@H](NC(=O)[C@H](CCN)NC(=O)[C@@H](NC(=O)C(O)c2cccc(Br)c2)C(C)O)CCNC(=O)[C@H](C(C)O)NC(=O)[C@H](CCN)NC(=O)[C@H](CCN)NC1=O (stereo partly shown) [Example 18] (X11-[Thr(3ξ)][Dab][Dab][Dab][dF]L[Dab][Dab][Thr(3ξ)]; lactam 3-C) | ≤0.06 | 0.125 | 0.125 | 0.125 | 1 | 0.125 | 0.5 | 2 | 0.5 | 0.25 | 1 | 0.5 | 0.25 |  |  |
| CC(C)C[C@@H]1NC(=O)[C@@H](CC(C)C)NC(=O)[C@H](CCN)NC(=O)[C@@H](NC(=O)[C@H](CCN)NC(=O)[C@@H](NC(=O)CC(N)C2CCCCC2)C(C)O)CCNC(=O)[C@H](C(C)O)NC(=O)[C@H](CCN)NC(=O)[C@H](CCN)NC1=O (stereo partly drawn) [Example 30, 3(R,S)-3-Amino-3-cyclohexane-propanoyl]Polymyxin E nonapeptide, TFA salt] ({ξβ3hGly(cHex)}-[Thr(3ξ)][Dab][Dab][Dab][dL]L[Dab][Dab][Thr(3ξ)]; lactam 3-C) | 0.125 | ≤0.06 | <0.06 | 0.25 |  |  | 0.25 | 2 | 0.5 | 0.25 | 0.125 | 0.125 | 0.25 | ≤0.06 |  |
| CC(C)C[C@@H]1NC(=O)[C@@H](Cc2ccccc2)NC(=O)[C@H](CCN)NC(=O)[C@@H](NC(=O)[C@H](CCN)NC(=O)[C@@H](NC(=O)C[C@@H]2CCCCN2)C(C)O)CCNC(=O)[C@H](C(C)O)NC(=O)[C@H](CCN)NC(=O)[C@H](CCN)NC1=O (stereo partly drawn) [Example 33, (2S)-piperidin-2-yl-ethanoyl polymyxin B nonapeptide, trifluoroacetate salt] (X5-[Thr(3ξ)][Dab][Dab][Dab][dF]L[Dab][Dab][Thr(3ξ)]; lactam 3-C) | ≤0.06 | ≤0.06 | ≤0.06 | ≤0.06 | 0.125 |  | 0.125 | 2 | 0.125 | ≤0.06 | ≤0.06 | ≤0.06 | ≤0.06 | ≤0.06 | MIC A. baumannii ATCC BAA-747 (Acinetobacter baumannii; [14]): ≤0.06 micrograms/mL; MIC A. baumannii CCUG57249 (Acinetobacter baumannii; [14]): ≤0.06 micrograms/mL; MIC A. baumannii NCTC 13423 (Acinetobacter baumannii; [14]): ≤0.06 micrograms/mL; MIC A. baumannii NCTC 13424 (Acinetobacter baumannii; [14]): ≤0.06 micrograms/mL; MIC E. coli ATCC25922 (Escherichia coli; [14]): ≤0.06 micrograms/mL; MIC E. coli NCTC9001 (Escherichia coli; [14]): 0.125 micrograms/mL; MIC K. pneumoniae ATCC-BAA-2146 (Klebsiella pneumoniae; [14]): 0.125 micrograms/mL; MIC K. pneumoniae CCUG-59348 (Klebsiella pneumoniae; [14]): 2 micrograms/mL; MIC K. pneumoniae NCTC 13438 (Klebsiella pneumoniae; [14]): 0.125 micrograms/mL; MIC P. aeruginosa ATCC 27853 (Pseudomonas aeruginosa; [14]): ≤0.06 micrograms/mL; MIC P. aeruginosa ATCC CRM-9027 (Pseudomonas aeruginosa; [14]): ≤0.06 micrograms/mL; MIC P. aeruginosa ATCC-47 (Pseudomonas aeruginosa; [14]): ≤0.06 micrograms/mL; MIC P. aeruginosa CCUG 59626 (Pseudomonas aeruginosa; [14]): ≤0.06 micrograms/mL |
| CC(C)C[C@@H]1NC(=O)[C@@H](Cc2ccccc2)NC(=O)[C@H](CCN)NC(=O)[C@@H](NC(=O)[C@H](CCN)NC(=O)[C@@H](NC(=O)[C@H]2CC[C@@H](N)C2)C(C)O)CCNC(=O)[C@H](C(C)O)NC(=O)[C@H](CCN)NC(=O)[C@H](CCN)NC1=O (stereo partly drawn) [Example 34A, (1S,3R)-3- Aminocyclopentane carbonyl polymyxin B nonapeptide, trifluoroacetate salt] (X8-[Thr(3ξ)][Dab][Dab][Dab][dF]L[Dab][Dab][Thr(3ξ)]; lactam 3-C) | ≤0.06 | ≤0.06 | ≤0.06 |  | 0.125 |  | 0.125 | 4 | 0.25 | 0.125 |  | 0.125 | 0.125 | ≤0.06 | MIC E. coli ATCC25922 (Escherichia coli; MIC = total drug concentration, strain ATCC25922, trifluoroacetate salt): ≤0.06 micrograms/mL; MIC P. aeruginosa ATCC CRM-9027 (Pseudomonas aeruginosa; MIC = total drug concentration, strain ATCC CRM-9027, trifluoroacetate salt): 0.125 micrograms/mL |
| CC(C)C[C@@H]1NC(=O)[C@@H](Cc2ccccc2)NC(=O)[C@H](CCN)NC(=O)[C@@H](NC(=O)[C@H](CCN)NC(=O)[C@@H](NC(=O)C[C@H]2CC[C@@H](N)CC2)C(C)O)CCNC(=O)[C@H](C(C)O)NC(=O)[C@H](CCN)NC(=O)[C@H](CCN)NC1=O (stereo partly drawn) [Example 36, Cis-2-(4-aminocyclohexane) ethanoyl polymyxin B nonapeptide, trifluoroacetate salt] ({Acetyl(cis-4-NH-cyclohexyl)}-[Thr(3ξ)][Dab][Dab][Dab][dF]L[Dab][Dab][Thr(3ξ)]; lactam 3-C) | 0.25 | 0.125 | 0.5 | 0.25 | 0.125 |  | 0.5 | 4 | 1 | 0.25 | 0.25 | 0.125 | 0.25 | 0.125 |  |
| CC(C)C[C@@H]1NC(=O)[C@@H](Cc2ccccc2)NC(=O)[C@H](CCN)NC(=O)[C@@H](NC(=O)[C@@H](CO)NC(=O)[C@@H](NC(=O)C2CCCC2N)C(C)O)CCNC(=O)[C@H](C(C)O)NC(=O)[C@H](CCN)NC(=O)[C@H](CCN)NC1=O (stereo partly drawn) [Example 44, [2-Amino-cyclopentane-carbonyl]-L-Thr-D-Ser-polymyxin B hepatapeptide, TFA salt] (X4-[Thr(3ξ)][dS][Dab][Dab][dF]L[Dab][Dab][Thr(3ξ)]; lactam 3-C) | 0.125 | 0.125 | 0.125 | 0.125 | 0.5 | 0.125 | 1 | 4 |  | 0.5 | 0.5 | 1 | 0.5 | 0.25 |  |
| CC(C)C[C@@H]1NC(=O)[C@@H](Cc2ccccc2)NC(=O)[C@H](CCN)NC(=O)[C@@H](NC(=O)[C@@H](CO)NC(=O)[C@@H](NC(=O)C(O)C2CCCCC2)C(C)O)CCNC(=O)[C@H](C(C)O)NC(=O)[C@H](CCN)NC(=O)[C@H](CCN)NC1=O (stereo partly drawn) [Example 46, [2-cyclohexyl-2-hydroxyethanoyl]-L-Thr-D-Ser-polymyxin B heptapeptide, TFA salt] (ξHexahydromandeloyl-[Thr(3ξ)][dS][Dab][Dab][dF]L[Dab][Dab][Thr(3ξ)]; lactam 3-C) | 0.125 | 0.125 | ≤0.06 | 0.125 | 0.25 | 0.125 | 1 | 2 |  | 1 | 1 | 2 | 1 | ≤0.06 |  |
